Assay results: the supplement of paper PMC10307832

Legend:
Assay in all cases: relative viability (nuclei count vs DMSO), 5 days (fraction); higher = more cells survive
TPCA-1 + Palbociclib = compound: C1=CC(=CC=C1C2=CC(=C(S2)NC(=O)N)C(=O)N)F [TPCA-1] + CC(=O)c1c(C)c2cnc(Nc3ccc(N4CCNCC4)cn3)nc2n(C2CCCC2)c1=O [Palbociclib] (partner 0.5 µM)
Procedure, shortened: (§1)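 Dosing by pin tool came one day after lung cancer cell lines were seeded in 1536-well plates, using either one drug or a fixed anchor-drug dose plus five library-drug doses (not always all listed) in √10 steps. After 5 days, nuclei were counted on 4× images. Relative viability is treated-well nuclei count divided by vehicle-well nuclei count, and values are medians of duplicate plates.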

[1] = compound: C1/C(=C\C2=CC=CS2)/C(=O)/C(=C/C3=CC=CS3)/C1 + Cc1nc(Nc2ncc(C(=O)Nc3c(C)cccc3Cl)s2)cc(N2CCN(CCO)CC2)n1 [Dasatinib] (partner 0.075 µM)
Procedure, shortened: as §1

TPCA-1 + Navitoclax = compound: C1=CC(=CC=C1C2=CC(=C(S2)NC(=O)N)C(=O)N)F [TPCA-1] + CC1(C)CCC(c2ccc(Cl)cc2)=C(CN2CCN(c3ccc(C(=O)NS(=O)(=O)c4ccc(N[C@H](CCN5CCOCC5)CSc5ccccc5)c(S(=O)(=O)C(F)(F)F)c4)cc3)CC2)C1 [Navitoclax] (partner 0.5 µM)
Procedure, shortened: as §1

TPCA-1 + Pemetrexed = compound: C1=CC(=CC=C1C2=CC(=C(S2)NC(=O)N)C(=O)N)F [TPCA-1] + Nc1nc2[nH]cc(CCc3ccc(C(=O)N[C@@H](CCC(=O)O)C(=O)O)cc3)c2c(=O)[nH]1 [Pemetrexed] (partner 0.2 µM)
Procedure, shortened: as §1

Cell Line | relative viability (TPCA-1 + Palbociclib; first compound 0.04 µM) | relative viability (TPCA-1 + Palbociclib; first compound 0.1265 µM) | relative viability (TPCA-1 + Palbociclib; first compound 0.4 µM) | relative viability (TPCA-1 + Palbociclib; first compound 1.265 µM) | relative viability (TPCA-1 + Palbociclib; first compound 4 µM) | relative viability ([1]; first compound 0.2 µM) | relative viability ([1]; first compound 0.6325 µM) | relative viability ([1]; first compound 2 µM) | relative viability ([1]; first compound 6.325 µM) | relative viability ([1]; first compound 20 µM) | relative viability (TPCA-1 + Navitoclax; first compound 0.04 µM) | relative viability (TPCA-1 + Navitoclax; first compound 0.1265 µM) | relative viability (TPCA-1 + Navitoclax; first compound 0.4 µM) | relative viability (TPCA-1 + Navitoclax; first compound 1.265 µM) | relative viability (TPCA-1 + Navitoclax; first compound 4 µM) | relative viability (TPCA-1 + Pemetrexed; first compound 0.04 µM) | relative viability (TPCA-1 + Pemetrexed; first compound 0.1265 µM) | relative viability (TPCA-1 + Pemetrexed; first compound 0.4 µM) | relative viability (TPCA-1 + Pemetrexed; first compound 1.265 µM) | relative viability (TPCA-1 + Pemetrexed; first compound 4 µM)
LOU-NH91 | 0.539 | 0.51 | 0.471 | 0.524 | 0.532 | 0.559 | 0.582 | 0.585 | 0.514 | 0.531 | 0.822 | 0.585 | 0.692 | 0.65 | 0.507 | 0.399 | 0.376 | 0.389 | 0.392 | 0.532
LU99A | 0.468 | 0.365 | 0.407 | 0.369 | 0.258 | 0.611 | 0.539 | 0.714 | 0.623 | 0.554 | 0.976 | 0.77 | 0.802 | 0.766 | 0.473 | 0.17 | 0.162 | 0.196 | 0.167 | 0.198
LXF-289 | 0.623 | 0.605 | 0.627 | 0.643 | 0.514 | 0.241 | 0.178 | 0.251 | 0.154 | 0.203 | 0.937 | 0.907 | 0.949 | 0.915 | 0.839 | 0.883 | 0.869 | 0.903 | 0.877 | 0.535
NCI-H23 | 0.539 | 0.527 | 0.51 | 0.431 | 0.435 | 0.742 | 0.832 | 1.07 | 0.804 | 0.692 | 0.823 | 0.742 | 0.687 | 0.616 | 0.694 | 0.614 | 0.668 | 0.72 | 0.61 | 0.235
NCI-H322M | 0.469 | 0.469 | 0.488 | 0.523 | 0.403 | 0.256 | 0.244 | 0.249 | 0.237 | 0.247 | 1.26 | 1.07 | 1.18 | 1.13 | 1.17 | 0.614 | 0.481 | 0.57 | 0.566 | 0.497
NCI-H441 | 0.186 | 0.183 | 0.188 | 0.239 | 0.162 | 0.798 | 0.739 | 0.573 | 0.522 | 0.412 | 0.604 | 0.405 | 0.736 | 0.578 | 0.297 | 0.247 | 0.257 | 0.258 | 0.24 | 0.242
NCI-H460 | 0.187 | 0.086 | – | 0.16 | 0.136 | 0.562 | 0.526 | 0.6 | 0.461 | 0.484 | 1.24 | 1.04 | 1 | 1.1 | 0.709 | 0.0613 | 0.0689 | – | 0.0518 | 0.0585
NCI-H520 | 0.281 | 0.162 | 0.164 | 0.282 | 0.232 | 0.218 | 0.212 | 0.165 | 0.241 | 0.213 | 1.17 | 0.96 | 1.1 | 0.977 | 1.08 | 0.779 | 0.727 | 0.737 | 0.578 | 0.608
NCI-H647 | 0.47 | 0.4 | 0.342 | 0.38 | 0.188 | 0.214 | 0.145 | 0.19 | 0.211 | 0.16 | 1.1 | 0.9 | 1.22 | 0.67 | 0.706 | 0.177 | 0.172 | 0.183 | 0.163 | 0.182
NCI-H838 | 0.225 | 0.193 | 0.222 | 0.194 | 0.199 | 0.278 | 0.268 | 0.274 | 0.276 | 0.284 | 1.23 | 0.985 | 1.13 | 0.995 | 0.812 | 0.25 | 0.225 | 0.259 | 0.264 | 0.294
NCI-H1355 | 0.455 | 0.395 | 0.408 | 0.389 | 0.361 | 0.772 | 0.701 | 0.712 | 0.598 | 0.682 | 1.02 | 0.903 | 0.912 | 0.826 | 0.686 | 1.06 | 1 | 1.01 | 0.945 | 0.878
NCI-H1395 | 0.644 | 0.596 | 0.639 | 0.635 | 0.512 | 0.422 | 0.406 | 0.399 | 0.406 | 0.382 | 1.2 | 0.932 | 1.25 | 1.05 | 0.99 | 0.857 | 0.859 | 1.06 | 0.847 | 0.629
NCI-H1437 | 0.302 | 0.288 | 0.3 | 0.35 | 0.3 | 0.408 | 0.446 | 0.561 | 0.412 | 0.378 | 1.11 | 1.05 | 1.13 | 1.07 | 1.08 | 0.318 | 0.326 | 0.318 | 0.302 | 0.298
NCI-H1650 | 0.323 | 0.309 | 0.408 | 0.474 | 0.354 | 0.313 | 0.3 | 0.341 | 0.306 | 0.316 | 1.3 | 1.05 | 1.27 | 1.09 | 1.1 | 0.382 | 0.369 | 0.424 | 0.358 | 0.365
NCI-H1651 | 0.54 | 0.493 | 0.51 | 0.535 | 0.505 | 0.435 | 0.504 | 0.417 | 0.425 | 0.401 | 0.97 | 0.913 | 0.947 | 1.16 | 0.995 | 0.601 | 0.538 | 0.532 | 0.527 | 0.338
NCI-H1666 | 0.653 | 0.661 | 0.605 | 0.673 | 0.64 | 0.833 | 0.847 | 0.811 | 0.786 | 0.875 | 1.12 | 0.848 | 1.03 | 0.943 | 1.05 | 1.02 | 0.818 | 0.842 | 0.82 | 0.93
